Laboratory results published in patent US20030055065A1, “Tricyclic amide and urea compounds useful for inhibition of G-protein function and for treatment of proliferative diseases” (priority 1993, published 2003).
Values joined by “and” are separate entries in the source; they are usually repeats but may differ in a detail not shown here. Identical values can stand only once. Like-named read-outs stand apart in the source and are kept apart here.

How the values were obtained:
[1] = tested on: Ras-CVLS processing in COS monkey kidney cells; assay: COS cell assay: Ras-CVLS processing (Western blot); assay type: cell-based; details: COS cells; for IC50: read-out: Inhibition of Ras Processing IC50
Procedure: 2. […] Effect of farnesyl protein transferase inhibitors on Ras processing and on disordered cell growth induced by transforming Ras. COS monkey kidney cells were transfected by electroporation with the plasmid pSV-SPORT (Gibco/BRL) containing a cDNA insert encoding either Ras-CVLS or Ras-CVLL, leading to transient overexpression of a Ras substrate for either farnesyl protein transferase or geranylgeranyl protein transferase I, respectively (see above). […] After 24 hours, media was removed and fresh media containing the appropriate drugs was re-added. 48 hours after electroporation cells were examined under the microscope to monitor disordered cell growth induced by transforming Ras. Cells expressing transforming Ras become more rounded and refractile and overgrow the monolayer, reminiscent of the transformed phenotype. […] Cells were lysed by homogenization and cell debris was removed by centrifugation at 2000×g for 10 min. Cellular protein was precipitated by addition of ice-cold trichloroacetic acid and redissolved in 100 μl of SDS-electrophoresis sample buffer. […] Proteins resolved on the gels were electroblotted onto nitrocellulose membranes for immunodetection. […] E., et al., (1982), Monoclonal antibodies to the p21 products of the transforming gene of Harvey murine sarcome virus and of the cellular ras gene family, J. Virol. 43: 294-304), in PBS containing 1% fetal calf serum for one hour at room temperature. After washing, membranes were incubated for one hour at room temperature with a 1:5000 dilution of secondary antibody, rabbit anti-rat IgG conjugated to horseradish peroxidase, in PBS containing 1% fetal calf serum.

[2] = tested on: Normal human HEPM fibroblasts; assay: Cell Mat Assay: density of mat cells (mIC50); assay type: cell-based
Procedure: (§1) Compound-induced colony inhibition was assayed by addition of serial dilutions of compound directly to the growth medium 24 h after tumor cell planting, and incubating cells for an additional 14 d to allow colony formation. Assays were terminated by rinsing monolayers twice with phosphate-buffered saline (PBS), fixing the monolayers with a 1% glutaraldehyde solution in PBS, then visualizing tumor cells by staining with X-Gal (Price, J., et al., Lineage analysis in the vertebrate nervous system by retrovirus-mediated gene transfer, Proc. Natl. Acad. Sci.84, 156-160(1987)). […] Both IC50 values were obtained by determining the density of tumor cells and mat cells by visual inspection and enumeration of cells per colony and the number of colonies under the microscope.

[3] = tested on: T24-BAG4 human bladder carcinoma cells expressing an activated H-ras gene; assay: Cell Mat Assay: tumor cell colony inhibition (tIC50); assay type: cell-based; details: inhibition of tumor cell growth
Procedure: as §1

[4] = molecular target: T1, farnesyl protein transferase (FPT), partially purified from rat brain (Rattus norvegicus, UniProt Q02293+Q04631); assay: Inhibition of farnesyl protein transferase (transfer of [3H]farnesyl to Ras-CVLS); assay type: biochemical; details: for IC50: read-out: FPT IC50
T1 construct: were partially purified from rat brain by ammonium sulfate fractionation followed by Q-Sepharose
In short: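 Transfer of [3H]farnesyl onto E. coli-expressed, His6-tagged Ras-CVLS was measured after 30 min at room temperature. Radiolabelled Ras was TCA-precipitated on ice and filter-harvested, and inhibition was expressed as percent of DMSO control.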

[5] = Ras-CVLS farnesylation, partially purified rat brain FPT

T1 sequence (Q02293 whole entry, one chain of several): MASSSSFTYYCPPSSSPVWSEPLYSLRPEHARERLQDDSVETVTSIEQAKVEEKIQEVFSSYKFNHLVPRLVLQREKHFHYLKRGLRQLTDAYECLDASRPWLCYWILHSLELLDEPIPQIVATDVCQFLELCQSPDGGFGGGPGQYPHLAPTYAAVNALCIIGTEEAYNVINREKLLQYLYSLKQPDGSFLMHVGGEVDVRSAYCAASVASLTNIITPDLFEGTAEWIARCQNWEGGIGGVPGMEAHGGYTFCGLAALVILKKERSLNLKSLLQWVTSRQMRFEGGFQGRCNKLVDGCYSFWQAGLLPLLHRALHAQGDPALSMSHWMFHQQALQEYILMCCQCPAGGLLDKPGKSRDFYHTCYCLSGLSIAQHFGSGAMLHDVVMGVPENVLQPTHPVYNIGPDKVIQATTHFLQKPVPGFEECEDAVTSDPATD

Row | SMILES | IC50 ([3]; Homo sapiens) [µM] | IC50 [4, 5] | IC50 [3] [µM] | IC50 ([4]; enzyme inhibition) | FPT inhibition at the concentration in parentheses ([4]; (0.48) μM) | IC50 ([1]; Primates, COS) [µM] | IC50 ([2]; Homo sapiens, Fibroblast) [µM] | IC50 [1] [µM] | IC50 [2] [µM] | Toxicity in COS cells at the concentration in parentheses ([1]; (10) μM)
1 | O=C(Nc1cccnc1)N1CCN(C2c3ccc(Cl)cc3CCc3cccnc32)CC1 (stereo not shown) [187 (6.7)] | 37 | 1.34 µM | 25 |  |  | 4.8 | > 50 |  |  | 
2 | O=C(Nc1cccnc1)N1CCN([C@H]2c3ccc(Cl)cc3CCc3cccnc32)CC1 [224 (6.11)] | 37 | 0.46 µM |  |  |  | 7.3 | > 50 |  |  | 
3 | O=C(N[C@@H](Cc1ccc(O)cc1)C(=O)N1CCC(=C2c3ccc(Cl)cc3CCc3cccnc32)CC1)OCc1ccccc1 [Example 46] |  | 1.2 µM |  |  |  |  |  | > 8 | > 50 | 
4 | CC(C)(C)C(=O)N1CCC(=C2c3ccc(Cl)cc3CCc3cccnc32)CC1 [Example 53] |  | 1.5 µM | 25 |  |  |  |  | > 13 | > 50 | 
5 | O=C(Cc1ccncc1)N1CCC(=C2c3ccccc3CCc3ccccc32)CC1 [Example 87] | 50 | 1.14 µM |  |  |  | 12.7 | > 50 |  |  | 
6 | CC(C)(C(=O)N1CCN(C2c3ccc(Cl)cc3CCc3cccnc32)CC1)c1cccnc1 (stereo not shown) [Example 198] | 12.5 |  |  |  |  | 6.1 | > 50 |  |  | 
7 | O=C(Cc1ccncc1)N1CCC(C2c3ccc(Cl)cc3C=Cc3cccnc32)CC1 (stereo not shown) [Example 269] | 6.25 |  |  |  |  | 0.69 | 12.5 |  |  | 
8 | O=C(Cc1cccnc1)N1CC=C(C2c3ccc(Cl)cc3CCc3cccnc32)CC1 (stereo not shown) [Example 410-D] | 10 |  |  |  |  | 18.5 | > 50 |  |  | 
9 | CN1CCC(CC(=O)N2CCN(C3c4ccc(Cl)cc4CCc4cc(Br)cnc43)CC2)CC1 (stereo not shown) [Example 425-O] |  |  |  | 0.17 µM and 0.14 µM and 0.122 µM and 0.118 µM and 0.178 µM |  |  | 6.25 |  |  | tox (10)
10 | O=C(Cc1ccncc1)N1CCN(C2c3ccc(Cl)cc3CCc3cc(Br)cnc32)CC1 (stereo not shown) [Example 426] |  |  |  | 0.012 µM |  | 0.38 | 25 |  | > 12.5 | 

More lines, main results first:

Row | IC50 ([3]; Homo sapiens) [µM] | IC50 [4, 5] | IC50 [3] [µM] | IC50 ([4]; enzyme inhibition) | FPT inhibition at the concentration in parentheses ([4]; (0.48) μM) | SMILES | IC50 ([1]; Primates, COS) [µM] | IC50 ([2]; Homo sapiens, Fibroblast) [µM] | IC50 [1] [µM] | IC50 [2] [µM] | Toxicity in COS cells at the concentration in parentheses ([1]; (10) μM)
11 | < 3.1 |  |  |  |  | O=C(Cc1ccncc1)N1CCC(=C2c3ccc(Br)cc3CCc3cccnc32)CC1 [181 (5.48)] | 1.1 | > 50 |  |  | 
12 | 12.5 | 1.6 µM |  |  |  | CC(=O)N1CCC(CC(=O)N2CCN([C@H]3c4ccc(Cl)cc4CCc4cccnc43)CC2)CC1 [225 (5.99)] | 6.2 | > 50 |  |  | 
13 | 12.5 | 1.8 µM |  |  |  | CC(=O)N1CCC(C(=O)N2CCN([C@H]3c4ccc(Cl)cc4CCc4cccnc43)CC2)CC1 [226 (5.101)] | 6.5 | > 50 |  |  | 
14 |  |  | 37 |  |  | O=C(Cc1ccncc1)N1CCC(=C2c3ccc(Cl)cc3CCc3ccc[n+]([O-])c32)CC1 [230 (5.105)] |  |  | > 20 | > 50 | 
15 |  | 0.19 µM | 18 |  |  | O=C(Cc1ccncc1)N1CCC(=C2c3ccc(Cl)cc3CCc3c(Cl)ccnc32)CC1 [248 (5.123)] |  |  | 4.6 | > 50 | 
16 | 18 | 1.2 µM |  |  |  | O=C(Cc1ccncc1)N1CCC(=C2c3ccc(Cl)cc3CCc3ccc(Cl)nc32)CC1 [248 (5.124)] | 2.05 | > 50 |  |  | 
17 | 3.1 | 0.16 µM and 0.36 µM |  |  |  | O=C(Cc1ccncc1)N1CCC(C2c3ccc(Cl)cc3CCc3cccnc32)CC1 (stereo not shown) [Example 82, 4-(8-chloro-6,11-dihydro-5H-benzo-[5,6]cyclohepta[1,2-b]pyridin-11-yl)-1-[(4-pyridinyl)acetyl]-piperidine] | 1.2 | 40 |  |  | 
18 | 6.3 | 1.8 µM |  |  |  | CC(=O)N1CCC(C(=O)N2CCC(=C3c4ccc(Cl)cc4CCc4cccnc43)CC2)CC1 [Example 89] | 6.3 | > 25 |  |  | 
19 | 3.1 | 1.4 µM |  |  |  | CN1CCC(CC(=O)N2CCN(C3c4ccc(Cl)cc4CCc4cccnc43)CC2)CC1 (stereo not shown) [Example 201] | 0.93 | 12.5 |  |  | 
20 |  |  |  | 0.26 µM | 70 (0.48) | Cc1ccc2c(c1)CCc1cccnc1C2=C1CCN(C(=O)Cc2ccncc2)CC1 [Example 434] | < 5 |  |  |  | 
